# How the values were obtained:
# α-synuclein protein = test: α-synuclein-specific ELISA in SK-N-MC cells; type: cell-based, human
# Procedure: Protein lysis buffer containing 320 mM sucrose, 5 mM NaF, 1 mM Na3VO4, 10 mM Tris (pH 7.4), 1 mM EGTA, and 1 mM EDTA was used for mice brain tissue lysis. 100 μL of cold extraction buffer was added to each sample and homogenized in a dounce homogenizer. After incubating on ice for 10 minutes post-homogenization, samples were centrifuged at 10,000 rpm at 4° C. for 10 minutes. Supernatant was transferred to new tubes and centrifuged again at 10,000 rpm at 4° C. for additional 10 minutes. The final supernatant was transferred to new tubes and protein estimation was performed by ELISA. Total protein from rodent primary cells, human neuroblastoma cells and iPSC-derived neuronal cells was extracted using lysis buffer containing 1×PBS and 0.5% NP-40. Cells were washed once with cold PBS and lysed by adding cold lysis buffer. The cells were collected by scraping, then incubated for 30 minutes by rotating at 4° C. The samples were centrifuged at 14,000 rpm at 4° C. for 10 minutes and supernatant was transferred to new tubes. Total protein concentrations were determined by BCA assay (Thermo Scientific) according to the manufacturer's instructions. Total α-synuclein was quantified using an α-synuclein-specific sandwich ELISA.
# An α-synuclein-specific Meso Scale Discovery (MSD) ELISA assay (described in Ref. (11)) was utilized for endogenous α-synuclein protein measurement. […] After samples were emptied and plate washed 3 times with TBS-T, sulfo-tagged SOY1 mAb (detection Ab) (generated using Sulfo-Tag-NHS-Ester (MSD) diluted in blocking buffer (6.7 ng/μl), was added to the plate (30 μl volumes/well) and shaken for 1 hour at room temperature. Following 3 washes, MSD Read (2×, diluted in ultrapure water) buffer was added and the plates were immediately measured using a MSD Sector 2400 imager. For confirmatory studies, an second α-synuclein-specific ELISA implementation was used employing a different, extensively published anti-α-synuclein detection antibody (Syn-1 mAb) and a different anti-α-synuclein capture antibody (1H9, courtesy Dr. Selkoe).
# SNCA mRNA = test: endogenous SNCA mRNA expression in SK-N-MC neuroblastoma cells (screening, replication, confirmation; qPCR); type: cell-based, human
# Procedure: Human neuroblastoma SK-N-MC cells were acquired from American Type Culture Collection (ATCC). Cells were cultured at 37° C. in 5% CO2 in DMEM/F12 supplemented with 10% fetal bovine serum (FBS) and 100 units per ml penicillin and streptomycin. The drug library was obtained from the Laboratory for Drug Discovery in Neurodegeneration (LDDN), Harvard NeuroDiscovery Center, Boston, Mass. The drug library consisted of approximately 1,126 small molecules. About 586 of the compounds were from Prestwick Chemical's (Illkirch, France) library, a unique collection of mostly off-patent small organic molecules, 90% being marketed drugs and 10% bioactive alkaloids or related substances. About 400 compounds were from the SPECS collection (available on the world wide web at.specs.net). 140 compounds generated in house by the LDDN were also included in the library. Compounds for the screening were stored as DMSO stocks. All drugs used for Confirmation Assay were purchased from Sigma (St. Louis, Mo.).
# Approximately 2×10^4low passage SK-N-MC cells were seeded per well in 384-well cell culture plates for 24 hours. Compounds were then transferred into each well (final concentration 1 μM) by using a BioMekFX (Beckman Coulter) equipped with a 384-channel pipetting head. After 48 hours in cell culture incubator, cells were washed once in cold phosphate-buffered saline (PBS) by using BioTek ELx405 select CW plate washer and then lysed at room temperature (22-24° C.) with lysis buffer (Applied Biosystems) using the Cell-to-CT procedures according to the manufacturer's instructions (Applied Biosystems). After 5 min, lysis was terminated by incubation with stop solution (Applied Biosystems). 11 μL of each lysate were transferred to 384-well plates for RT in a total volume of 25 μl. 4 μL of RT reaction were then transferred to new 384-well plates for qPCR.
# Using the Cell-to-CT kit (Applied Biosystems) we performed expression analysis directly from SK-N-MC neuroblastoma cells cultured in 384-well plates through in situ cDNA synthesis. In this miniaturized assay, high copy numbers of SNCA and of endogenous controls were detected as indicated by raw cycle threshold values of 25.11±0.02 (mean CT value±SEM) and 20.2±0.02 for SNCA and Ubiquitin C (UBC), respectively. Technical variation (using identical cDNA loaded in multiple wells) and biological variation (cDNA synthesized in situ in each of 384 wells of cultured SK-N-MC cells treated with DMSO) were low, with coefficients of variation of 1% and 5.2% respectively. At least ten DMSO-treated controls were included on each 384-well plate as negative external control and calibrator. An equal amount of cDNA derived from Universal Reference RNA was spotted on all plates as plate-to-plate control. Control reactions lacking template or reverse transcription were assayed for contamination with genomic DNA.
# 41 compounds were forwarded into the Replication Assay. For each compound eight wells were treated with drug and compared to eight wells treated with DMSO alone. The Cell-to-CT procedure was employed using two new reference genes, ribosomal protein L13 (RPL13) and glucuronidase beta (GUSB) (instead of UBC) to control for input RNA. […] 10 compounds met these criteria and were forwarded from the Replication into the Confirmation Assay.
# The ten forwarded compounds were used in the Confirmation Assay. For each compound ten wells were treated with drug and compared to ten wells treated with DMSO alone. RNA was extracted using TRIzol® following the manufacturers protocol (Life Technologies). Freshly ordered compounds were used. […] Six compounds met these criteria and were forwarded from the Confirmation Assay to the ELISA Assay stage (see below).
# Total RNA from flash-frozen mice brain tissue, rodent primary cells, human neuroblastoma cells and iPSC-derived neuronal cells was isolated using TRIzol® (Life Technologies) following the manufacturer's protocol. […]
# [1] = SK-N-MC cells, 5, 10, 20 μM, four days
structure (smiles),measurement,setting,value
"CC(C)NCC(O)COc1cccc2ccccc12 (stereo not drawn) [Propranolol, propranolol]",endogenous α-synuclein protein under β2AR antagonism,α-synuclein protein; SK-N-MC cells,increased
same,endogenous SNCA mRNA under β2AR antagonism,SNCA mRNA; SK-N-MC cells,increased
same,effect of co-treatment on clenbuterol's SNCA expression-lowering effects,"SNCA mRNA; SK-N-MC cells, co-treatment with clenbuterol",blocked clenbuterol's SNCA expression-lowering effects
"CC(C)(C)NCC(O)c1ccc(O)c(CO)c1 (stereo not drawn) [Salbutamol, salbutamol]","SNCA mRNA expression, dose dependence","SNCA mRNA; SK-N-MC cells, indicated doses, 48 hours",lowered SNCA mRNA expression in a dose-dependent manner
CC(C)(C)NCC(O)c1cc(Cl)c(N)c(Cl)c1 (stereo not drawn) [clenbuterol],α-synuclein protein after 14 days,"α-synuclein protein; SK-N-MC cells, 10 μM, 14 days",lowered
same,α-synuclein protein levels with increasing concentrations,α-synuclein protein; [1],decrease
same,SNCA mRNA levels after 14 days,"SNCA mRNA; SK-N-MC cells, 10 μM, 14 days",lowered
same,α-synuclein mRNA levels with increasing concentrations,SNCA mRNA; [1],decrease in α-synuclein mRNA
same,relative SNCA mRNA abundance (with H3K27Ac blot),"SNCA mRNA; SK-N-MC cells, vs vehicle-treated cells",decreased

# Reference: US20210308077A1, “COMBINATIONS INCLUDING BETA-ADRENORECEPTOR AGONISTS FOR TREATMENT OF PARKINSON`S DISEASE AND MOVEMENT DISORDERS” (The Brigham and Women`s Hospital, Inc., priority 2017, published 2021)
